Test results taken from patent publication US9409952B2, “Peptide-compound cyclization method” (Chugai Seiyaku Kabushiki Kaisha, priority 2011, dated 2016).
Starred links: 1 amine or outer side, 2 acyl side, 3 side chain; linkers in the order of their positions; H or OH if unused. Positions of bridges follow the written chain, without caps; N, C: chain ends. Non-standard residues stand in square brackets, D forms with d. Residues, ends and D or L forms follow the SMILES beside them. *: point of attachment. X2 = O=C(C[C@H](N[*:1])C(F)(F)F)[*:2]; NMeF = CN[C@@H](Cc1ccccc1)C(=O)O; Aoc(2) = CCCCCC[C@H](N)C(=O)O; NMeL = CN[C@@H](CC(C)C)C(=O)O; NMeS = CN[C@@H](CO)C(=O)O; NMeA = CN[C@@H](C)C(=O)O; Piperidide = C1CCN(*)CC1; β3hA = C[C@H](N)CC(=O)O; Abu = CC[C@H](N)C(=O)O; Sar = CNCC(=O)O

Legend:
[1] = PAMPA (parallel artificial membrane permeability assay); type: in vitro ADME; conditions: PAMPA; membrane permeation rate (Pe); 50 mM MOPSO buffer pH 6.5 with 5.0% glycocholic acid, 37° C., 18 hours; read-out: iPAMPA Pe
In short: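 Artificial membrane was 10% (w/v) egg lecithin plus 0.5% (w/v) cholesterol in dodecane on a PVDF filter. A 10 mM DMSO stock was added at 0.5% (v/v) to donor buffer (50 mM MOPSO, pH 6.5, 5.0% glycocholic acid). After 18 h at 37 °C, LC/MS or LC/UV gave donor and acceptor levels for Pe.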

[2] = Metabolic stability in human hepatic microsome; type: in vitro ADME; conditions: microsomes, pH 7.4; human hepatic microsome, NADPH(+); read-out: CL NADPH(+)

Row | SMILES | Papp at 18 hours, 50 µM [1] [×10⁻⁶ cm/s] | microsomal CLint at 1 uM [2] [µL/min/mg]
1 | CC[C@@H]1NC(=O)[C@H](CC(C)C)N(C)C(=O)[C@H](CC(C)C)NC(=O)[C@H](CC(C)C)N(C)C(=O)CN(C)C(=O)C[C@H](C)NC(=O)[C@H](CO)N(C)C(=O)[C@H](CC(C)C)N(C)C(=O)[C@H](CC(C)C)N(C)C(=O)[C@H](CC(C)C)N(C)C(=O)[C@@H](CC(C)C)NC1=O [DP-641] (cyclo([Abu][dL][NMeL][NMeL][NMeL][NMeS][β3hA][Sar][NMeL]L[NMeL])) | 46 | 91
2 | CC(C)C[C@@H]1NC(=O)[C@H](CC(C)C)N(C)C(=O)[C@H](C(C)C)NC(=O)[C@H](CC(C)C)N(C)C(=O)CN(C)C(=O)[C@H](CC(C)C)NC(=O)[C@H](CO)N(C)C(=O)[C@H](CC(C)C)N(C)C(=O)[C@H](CC(C)C)N(C)C(=O)C[C@H](C)NC(=O)[C@@H](CC(C)C)NC1=O [DP-642] (cyclo(L[Sar][NMeL]V[NMeL]L[dL][β3hA][NMeL][NMeL][NMeS])) | 32 | 65
3 | CC(C)C[C@@H]1NC(=O)C[C@H](C)NC(=O)[C@H](C(C)C)NC(=O)[C@H](CC(C)C)N(C)C(=O)CN(C)C(=O)[C@H](CC(C)C)NC(=O)[C@H](CO)N(C)C(=O)[C@H](CC(C)C)N(C)C(=O)[C@H](CC(C)C)N(C)C(=O)[C@H](CC(C)C)N(C)C(=O)[C@@H](CC(C)C)NC1=O [DP-643] (cyclo(L[Sar][NMeL]V[β3hA]L[dL][NMeL][NMeL][NMeL][NMeS])) | 29 | 24
4 | CC(C)C[C@@H]1NC(=O)[C@H](CO)N(C)C(=O)[C@H](CC(C)C)N(C)C(=O)[C@H](CC(C)C)N(C)C(=O)[C@H](CC(C)C)N(C)C(=O)C[C@H](C)NC(=O)[C@H](C)NC(=O)[C@H](CC(C)C)N(C)C(=O)[C@H](CC(C)C)NC(=O)[C@H](CC(C)C)N(C)C(=O)CN(C)C1=O [DP-644] (cyclo(A[β3hA][NMeL][NMeL][NMeL][NMeS]L[Sar][NMeL]L[NMeL])) | 33 | 80
5 | CCCCCC[C@@H]1NC(=O)[C@H](CO)N(C)C(=O)[C@H](CC(C)C)N(C)C(=O)[C@H](CC(C)C)N(C)C(=O)[C@H](CC(C)C)N(C)C(=O)[C@@H](C)NC(=O)[C@H](CC)NC(=O)[C@H](CC(C)C)N(C)C(=O)C[C@H](C)NC(=O)[C@H](CC(C)C)N(C)C(=O)CN(C)C1=O [DP-645] (cyclo([Abu][dA][NMeL][NMeL][NMeL][NMeS][Aoc(2)][Sar][NMeL][β3hA][NMeL])) | 49 | 74
6 | CCCCCC[C@@H]1NC(=O)[C@H](CC(C)C)N(C)C(=O)C[C@H](C)NC(=O)[C@H](CC)NC(=O)[C@H](CO)N(C)C(=O)[C@H](CC(C)C)N(C)C(=O)[C@H](CC(C)C)N(C)C(=O)[C@H](CC(C)C)N(C)C(=O)[C@@H](C)NC(=O)[C@H](C)NC(=O)[C@H](CC(C)C)N(C)C1=O [DP-646] (cyclo(A[dA][NMeL][NMeL][NMeL][NMeS][Abu][β3hA][NMeL][Aoc(2)][NMeL])) | 29 | 139
7 | CCCCCC[C@@H]1NC(=O)[C@H](CC(C)C)N(C)C(=O)CN(C)C(=O)[C@H](CC(C)C)NC(=O)C[C@H](C)NC(=O)[C@H](CC(C)C)N(C)C(=O)[C@H](CC(C)C)N(C)C(=O)[C@H](CC(C)C)N(C)C(=O)[C@@H](C)NC(=O)[C@H](CO)NC(=O)[C@H](CC(C)C)N(C)C1=O [DP-647] (cyclo([Aoc(2)][NMeL]S[dA][NMeL][NMeL][NMeL][β3hA]L[Sar][NMeL])) | 29 | 132
8 | CCCCCC[C@@H]1NC(=O)[C@H](CO)N(C)C(=O)C[C@H](C)NC(=O)[C@H](CC(C)C)N(C)C(=O)[C@H](CC(C)C)N(C)C(=O)[C@@H](CC(C)C)NC(=O)[C@H](CC)NC(=O)[C@H](CC(C)C)N(C)C(=O)[C@H](C(C)C)NC(=O)[C@H](CC(C)C)N(C)C(=O)CN(C)C1=O [DP-648] (cyclo([Abu][dL][NMeL][NMeL][β3hA][NMeS][Aoc(2)][Sar][NMeL]V[NMeL])) | 53 | 109
9 | CC(C)C[C@@H]1NC(=O)[C@H](CO)N(C)C(=O)[C@H](CC(C)C)N(C)C(=O)[C@H](CC(C)C)N(C)C(=O)[C@H](CC(C)C)N(C)C(=O)[C@@H](C)NC(=O)[C@H](C)NC(=O)[C@H](CC(C)C)N(C)C(=O)C[C@H](C)NC(=O)[C@H](CC(C)C)N(C)C(=O)CN(C)C1=O [DP-649] (cyclo(A[dA][NMeL][NMeL][NMeL][NMeS]L[Sar][NMeL][β3hA][NMeL])) | 22 | 27
10 | CC[C@@H]1NC(=O)[C@H](CO)N(C)C(=O)[C@H](CC(C)C)N(C)C(=O)[C@H](CC(C)C)N(C)C(=O)[C@H](CC(C)C)N(C)C(=O)[C@@H](CC(C)C)NC(=O)[C@H](C)NC(=O)[C@H](CC(C)C)N(C)C(=O)[C@H](C)NC(=O)[C@H](CC(C)C)N(C)C(=O)C[C@H](C)NC1=O [DP-650] (cyclo(A[NMeL]A[dL][NMeL][NMeL][NMeL][NMeS][Abu][β3hA][NMeL])) | 26 | 33
11 | CC[C@@H]1NC(=O)C[C@H](C)NC(=O)[C@H](CC(C)C)N(C)C(=O)[C@H](CC(C)C)N(C)C(=O)[C@H](CC(C)C)N(C)C(=O)[C@@H](C)NC(=O)[C@H](CO)NC(=O)[C@H](CC(C)C)N(C)C(=O)[C@H](CC(C)C)NC(=O)[C@H](CC(C)C)N(C)C(=O)CN(C)C1=O [DP-651] (cyclo([Abu][Sar][NMeL]L[NMeL]S[dA][NMeL][NMeL][NMeL][β3hA])) | 24 | 68
12 | CC(C)C[C@@H]1NC(=O)[C@H](CO)N(C)C(=O)C[C@H](C)NC(=O)[C@H](CC(C)C)N(C)C(=O)[C@H](CC(C)C)N(C)C(=O)[C@@H](C)NC(=O)[C@H](C(C)C)NC(=O)[C@H](CC(C)C)N(C)C(=O)[C@H](C(C)C)NC(=O)[C@H](CC(C)C)N(C)C(=O)CN(C)C1=O [DP-652] (cyclo(L[Sar][NMeL]V[NMeL]V[dA][NMeL][NMeL][β3hA][NMeS])) | 30 | 51
13 | CC(C)C[C@@H]1NC(=O)[C@H](CC(C)C)N(C)C(=O)[C@H](C(C)C)NC(=O)[C@H](CC(C)C)N(C)C(=O)CN(C)C(=O)[C@H](C(C)C)NC(=O)[C@H](CO)N(C)C(=O)[C@H](CC(C)C)N(C)C(=O)C[C@H](C)NC(=O)[C@H](CC(C)C)N(C)C(=O)[C@@H](C)NC1=O [DP-653] (cyclo(L[dA][NMeL][β3hA][NMeL][NMeS]V[Sar][NMeL]V[NMeL])) | 33 | 235
14 | CC[C@@H]1NC(=O)[C@H](CO)N(C)C(=O)[C@H](CC(C)C)N(C)C(=O)[C@H](CC(C)C)N(C)C(=O)[C@H](CC(C)C)N(C)C(=O)[C@@H](C)NC(=O)[C@H](C)NC(=O)[C@H](CC(C)C)N(C)C(=O)[C@H](CC)NC(=O)[C@H](CC(C)C)N(C)C(=O)C[C@@H](C(F)(F)F)NC1=O [DP-655] (cyclo(A[dA][NMeL][NMeL][NMeL][NMeS][Abu][X2][NMeL][Abu][NMeL])) | 34 | 62
15 | CC(C)C[C@@H]1NC(=O)[C@H](CO)N(C)C(=O)C[C@@H](C(F)(F)F)NC(=O)[C@H](CC(C)C)N(C)C(=O)[C@H](CC(C)C)N(C)C(=O)[C@@H](C)NC(=O)[C@H](C)NC(=O)[C@H](CC(C)C)N(C)C(=O)[C@H](CC(C)C)NC(=O)[C@H](CC(C)C)N(C)C(=O)CN(C)C1=O [DP-657] (cyclo(A[dA][NMeL][NMeL][X2][NMeS]L[Sar][NMeL]L[NMeL])) | 24 | 157
16 | CC(C)C[C@H](NC(=O)[C@H](Cc1ccccc1)N(C)C(=O)[C@@H]1CC(=O)N[C@H](C)C(=O)N[C@@H](C(C)C)C(=O)N(C)[C@@H](Cc2ccccc2)C(=O)N(C)[C@@H](CC(C)C)C(=O)N(C)[C@@H](C)C(=O)N[C@@H]([C@@H](C)O)C(=O)N[C@@H](Cc2ccccc2)C(=O)N1)C(=O)N[C@@H](C)C(=O)N1CCCCC1 [DP-658] ([dA]V[NMeF][NMeL][NMeA]TFD[NMeF]LA-Piperidide; lactam N-8) | 32 | 86
17 | CC[C@H](C)[C@@H]1NC(=O)[C@H](CC(C)C)N(C)C(=O)CN(C)C(=O)[C@H]([C@@H](C)O)NC(=O)[C@H](C)N(C)C(=O)C[C@@H](C(=O)N(C)[C@@H](C)C(=O)N[C@@H](CC(C)C)C(=O)N[C@H](C(=O)N(C)[C@@H](C)C(=O)N[C@@H](C)C(=O)N2CCCCC2)C(C)C)NC(=O)[C@H](CC(C)C)N(C)C(=O)[C@H](Cc2ccccc2)N(C)C(=O)[C@H](CC(C)C)N(C)C1=O [DP-659] ([NMeA]T[Sar][NMeL]I[NMeL][NMeF][NMeL]D[NMeA]LV[NMeA]A-Piperidide; lactam N-9) | 22 | 13
18 | CC[C@H](C)[C@@H]1NC(=O)[C@H](CC(C)C)N(C)C(=O)CN(C)C(=O)[C@H]([C@@H](C)O)NC(=O)[C@H](C)N(C)C(=O)C[C@@H](C(=O)N(C)[C@@H](Cc2ccccc2)C(=O)N(C)[C@@H](C)C(=O)N[C@H](C(=O)N[C@@H](C)C(=O)N2CCCCC2)C(C)C)NC(=O)[C@H](CC(C)C)N(C)C(=O)[C@H](Cc2ccccc2)N(C)C(=O)[C@H](CC(C)C)N(C)C1=O [DP-660] ([NMeA]T[Sar][NMeL]I[NMeL][NMeF][NMeL]D[NMeF][NMeA]VA-Piperidide; lactam N-9) | 27 | 222
